{
  "source": "the NIST ThermoML archive (doi:10.1007/s10765-010-0742-8)",
  "key": {"[1]": {"test": "mn = molality of the nth substance listed, in mol/kg", "conditions": "101 kPa, Liquid, m1 = 0.1; for viscosity: Capillary tube (Ostwald / Ubbelohde) method; for mass density: Pycnometric method"}, "[2]": {"test": "refractive index (Na D-line) (dimensionless); mn = molality of the nth substance listed, in mol/kg", "conditions": "101 kPa, Liquid, Standard Abbe refractometry, m1 = 0.1"}},
  "note": "Several values for one entry are separate records, joined by “and”; a condition that tells them apart may be missing. Equal values may be shown once. ± gives the expanded uncertainty stated by the source.",
  "data": [
    {"smiles": "O=C[C@H](O)[C@@H](O)[C@@H](O)[C@H](O)CO", "note": "[(+)-galactose] + O", "values": [
      {"measurement": "viscosity", "setting": "[1]; 298.15 K", "result": "0.9284 ± 0.0067", "unit": "mPa·s"},
      {"measurement": "mass density", "setting": "[1]; 298.15 K", "result": "1003.9 ± 0.3", "unit": "kg/m3"},
      {"measurement": "viscosity", "setting": "[1]; 303.15 K", "result": "0.8345 ± 0.0061", "unit": "mPa·s"},
      {"measurement": "mass density", "setting": "[1]; 303.15 K", "result": "1002.3 ± 0.4 kg/m3 and 1002.4 ± 0.4 kg/m3"},
      {"measurement": "viscosity", "setting": "[1]; 308.15 K", "result": "0.7518 ± 0.0055", "unit": "mPa·s"},
      {"measurement": "mass density", "setting": "[1]; 308.15 K", "result": "1001 ± 0.4", "unit": "kg/m3"},
      {"measurement": "viscosity", "setting": "[1]; 313.15 K", "result": "0.6858 ± 0.0051", "unit": "mPa·s"},
      {"measurement": "mass density", "setting": "[1]; 313.15 K", "result": "999.5 ± 0.4", "unit": "kg/m3"},
      {"measurement": "refractive index", "setting": "[2]; 298.15 K", "result": "1.3345 ± 0.0004"},
      {"measurement": "refractive index", "setting": "[2]; 303.15 K", "result": "1.334 ± 0.0004 and 1.3339 ± 0.0004"},
      {"measurement": "refractive index", "setting": "[2]; 308.15 K", "result": "1.3335 ± 0.0004"},
      {"measurement": "refractive index", "setting": "[2]; 313.15 K", "result": "1.3329 ± 0.0004"}
    ]}
  ]
}
